# Target: PD-1/PD-L1 protein/protein interaction (Homo sapiens (Human), UniProt Q9NZQ7)
# Assay: PD-1/PD-L1 Homogeneous Time-Resolved Fluorescence (HTRF) Binding Assay
# Conditions: recombinant human PD-L1 (19-238)-His and PD-1 (25-167)-Fc, 25° C., PBS pH 7.4
# Procedure: Example A. PD-1/PD-L1 Homogeneous Time-Resolved Fluorescence (HTRF) Binding Assay
# The assays were conducted in a standard black 384-well polystyrene plate with a final volume of 20 μL. Inhibitors were first serially diluted in DMSO and then added to the plate wells before the addition of other reaction components. The final concentration of DMSO in the assay was 1%. The assays were carried out at 25° C. in the PBS buffer (pH 7.4) with 0.05% Tween-20 and 0.1% BSA. Recombinant human PD-L1 protein (19-238) with a His-tag at the C-terminus was purchased from AcroBiosystems (PD1-H5229). Recombinant human PD-1 protein (25-167) with Fc tag at the C-terminus was also purchased from AcroBiosystems (PD1-H5257). PD-L1 and PD-1 proteins were diluted in the assay buffer and 10 μL was added to the plate well. Plates were centrifuged and proteins were preincubated with inhibitors for 40 minutes. The incubation was followed by the addition of 10 μL of HTRF detection buffer supplemented with Europium cryptate-labeled anti-human IgG (PerkinElmer-AD0212) specific for Fc and anti-His antibody conjugated to SureLight®-Allophycocyanin (APC, PerkinElmer-AD0059H). After centrifugation, the plate was incubated at 25° C. for 60 min. before reading on a PHERAstar FS plate reader (665 nm/620 nm ratio). Final concentrations in the assay were […], 10 nM PD-L1, 1 nM europium anti-human IgG and 20 nM anti-His-Allophycocyanin. IC50 determination was performed by fitting the curve of percent control activity versus the log of the inhibitor concentration using the GraphPad Prism 5.0 software.
# Sequence of PD-1/PD-L1 protein/protein interaction (Q9NZQ7 19-238): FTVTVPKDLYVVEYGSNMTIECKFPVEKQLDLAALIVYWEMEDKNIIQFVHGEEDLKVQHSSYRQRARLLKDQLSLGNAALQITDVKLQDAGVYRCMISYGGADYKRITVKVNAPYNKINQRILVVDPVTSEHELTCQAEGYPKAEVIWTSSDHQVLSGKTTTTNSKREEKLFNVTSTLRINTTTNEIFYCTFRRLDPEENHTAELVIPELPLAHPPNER
row,IC50 [µM],SMILES
1,0.1 to 0.5,"Cc1c(-c2ccccc2)cccc1-c1cn2cc(CNCCO)ccc2n1 [Example 1, 2-({[2-(2-methylbiphenyl-3-yl)imidazo[1,2-a]pyridin-6-yl]methyl}amino)ethanol]"
2,0.1 to 0.5,"Cc1c(-c2ccccc2)cccc1-c1cc2cc(CNCCO)ccn2c1 [Example 2, 2-({[2-(2-methylbiphenyl-3-yl)indolizin-7-yl]methyl}amino)ethanol]"
3,0.1 to 0.5,"Cc1c(-c2ccccc2)cccc1-c1cc2cc(CN3CCCC[C@H]3C(=O)O)ccn2c1 [Example 3, (2S)-1-{[2-(2-methylbiphenyl-3-yl)indolizin-7-yl]methyl}piperidine-2-carboxylic acid]"
4,0.5 to 10,"Cc1c(-c2ccccc2)cccc1-c1cc2cc(CN3CCCC[C@H]3C(=O)O)ncn2c1 [Example 4, (2S)-1-{[6-(2-methylbiphenyl-3-yl)pyrrolo[1,2-c]pyrimidin-3-yl]methyl}piperidine-2-carboxylic acid]"
5,≤ 0.1,"Cc1c(-c2ccccc2)cccc1-c1cn2nc(CNCCO)cnc2n1 [Example 5, 2-((6-(2-methylbiphenyl-3-yl)imidazo[1,2-b][1,2,4]triazin-2-yl)methylamino)ethanol]"
6,0.1 to 0.5,"Cc1c(-c2ccccc2)cccc1-c1cn2nc(CNCC#N)cnc2n1 [Example 6, 2-((6-(2-methylbiphenyl-3-yl)imidazo[1,2-b][1,2,4]triazin-2-yl)methylamino)acetonitrile]"
7,0.1 to 0.5,"Cc1c(-c2ccccc2)cccc1-c1cn2nc(CNCC(N)=O)cnc2n1 [Example 7, 2-((6-(2-methylbiphenyl-3-yl)imidazo[1,2-b][1,2,4]triazin-2-yl)methylamino)acetamide]"
8,0.1 to 0.5,"Cc1c(-c2ccccc2)cccc1-c1cn2nc(CN(C)CCO)cnc2n1 [Example 8, 2-(methyl((6-(2-methylbiphenyl-3-yl)imidazo[1,2-b][1,2,4]triazin-2-yl)methyl)amino)ethanol]"
9,0.1 to 0.5,"Cc1c(-c2ccccc2)cccc1-c1cn2cc(CNCCO)cc(C)c2n1 [Example 9, 2-((8-methyl-2-(2-methylbiphenyl-3-yl)imidazo[1,2-a]pyridin-6-yl)methylamino)ethanol]"
10,0.1 to 0.5,"Cc1c(-c2ccccc2)cccc1-c1cn2cc(CN3CCCC[C@H]3C(=O)O)cc(C)c2n1 [Example 10, (S)-1-((8-methyl-2-(2-methylbiphenyl-3-yl)imidazo[1,2-a]pyridin-6-yl)methyl)piperidine-2-carboxylic acid]"
11,0.1 to 0.5,"Cc1c(-c2ccccc2)cccc1-c1cn2cc(CNCCO)cc(Cl)c2n1 [Example 11, 2-((8-chloro-2-(2-methylbiphenyl-3-yl)imidazo[1,2-a]pyridin-6-yl)methylamino)ethanol]"
12,0.1 to 0.5,"Cc1c(-c2ccccc2)cccc1-c1cn2cc(CNCCO)cnc2n1 [Example 12, 2-({[2-(2-methylbiphenyl-3-yl)imidazo[1,2-a]pyrimidin-6-yl]methyl}amino)ethanol]"
13,≤ 0.1,"Cc1c(-c2ccccc2)cccc1-c1cn2cc(CNCCO)ncc2n1 [Example 13, 2-({[2-(2-methylbiphenyl-3-yl)imidazo[1,2-a]pyrazin-6-yl]methyl}amino)ethanol]"
14,0.5 to 10,"Cc1c(-c2ccccc2)cccc1-c1cn2nc(CN3CCCC[C@H]3C(=O)O)ccc2n1 [Example 14, (S)-1-((2-(2-methylbiphenyl-3-yl)imidazo[1,2-b]pyridazin-6-yl)methyl)piperidine-2-carboxylic acid]"
15,0.1 to 0.5,"Cc1c(-c2ccccc2)cccc1-c1cn2nc(CNCCO)ccc2n1 [Example 15, 2-({[2-(2-methylbiphenyl-3-yl)imidazo[1,2-b]pyridazin-6-yl]methyl}amino)ethanol]"
16,≤ 0.1,"Cc1c(-c2ccccc2)cccc1-c1nc2cc(CNCCO)ccn2n1 [Example 16, 2-({[2-(2-methylbiphenyl-3-yl)[1,2,4]triazolo[1,5-a]pyridin-7-yl]methyl}amino)ethanol]"
17,0.1 to 0.5,"Cc1c(-c2ccccc2)cccc1-c1nc2cc(CN3CCCC[C@H]3C(=O)O)ccn2n1 [Example 17, (2S)-1-{[2-(2-methylbiphenyl-3-yl)[1,2,4]triazolo[1,5-a]pyridin-7-yl]methyl}piperidine-2-carboxylic acid]"
18,≤ 0.1,"Cc1c(-c2ccccc2)cccc1-c1nc2ccc(CNCCO)cn2n1 [Example 18, 2-({[2-(2-methylbiphenyl-3-yl)[1,2,4]triazolo[1,5-a]pyridin-6-yl]methyl}amino)ethanol]"
19,0.1 to 0.5,"Cc1c(-c2ccccc2)cccc1-c1nc2ccc(CN3CCCC[C@H]3C(=O)O)cn2n1 [Example 19, (2S)-1-{[2-(2-methylbiphenyl-3-yl)[1,2,4]triazolo[1,5-a]pyridin-6-yl]methyl}piperidine-2-carboxylic acid]"
20,≤ 0.1,"Cc1c(-c2ccccc2)cccc1-c1nc2cc(CNCCO)nc(C)n2n1 [Example 20, 2-({[5-methyl-2-(2-methylbiphenyl-3-yl)[1,2,4]triazolo[1,5-c]pyrimidin-7-yl]methyl}amino)ethanol]"
21,≤ 0.1,"Cc1c(-c2ccccc2)cccc1-c1nc2c(Cl)cc(CNCCO)cn2n1 [Example 21, 2-({[8-chloro-2-(2-methylbiphenyl-3-yl)-[1,2,4]triazolo[1,5-a]pyridin-6-yl]methyl}amino)ethanol]"
22,0.1 to 0.5,"COCCNc1cc(CNCCO)cn2nc(-c3cccc(-c4ccccc4)c3C)nc12 [Example 22, 2-({[8-[(2-methoxyethyl)amino]-2-(2-methylbiphenyl-3-yl)[1,2,4]triazolo[1,5-a]pyridin-6-yl]methyl}amino)ethanol]"
23,≤ 0.1,"Cc1c(-c2ccccc2)cccc1-c1nc2c(CCCC#N)cc(CNCCO)cn2n1 [Example 23, 4-[6-{[(2-hydroxyethyl)amino]methyl}-2-(2-methylbiphenyl-3-yl)[1,2,4]triazolo[1,5-a]pyridin-8-yl]butanenitrile]"
24,≤ 0.1,"Cc1c(-c2ccccc2)cccc1-c1nc2c(CC#N)cc(CNCCO)cn2n1 [Example 24, [6-{[(2-hydroxyethyl)amino]methyl}-2-(2-methylbiphenyl-3-yl)[1,2,4]triazolo[1,5-a]pyridin-8-yl]acetonitrile]"
25,≤ 0.1,"N#Cc1c(-c2ccc3c(c2)OCCO3)cccc1-c1nc2c(Cl)cc(CNCCO)cn2n1 [Example 25, 2-(8-chloro-6-{[(2-hydroxyethyl)amino]methyl}[1,2,4]triazolo[1,5-a]pyridin-2-yl)-6-(2,3-dihydro-1,4-benzodioxin-6-yl)benzonitrile]"
26,≤ 0.1,"N#Cc1c(-c2ccc3c(c2)OCCO3)cccc1-c1nc2c(C#N)cc(CNCCO)cn2n1 [Example 26, 2-[2-cyano-3-(2,3-dihydro-1,4-benzodioxin-6-yl)phenyl]-6-{[(2-hydroxyethyl)amino]methyl}[1,2,4]triazolo[1,5-a]pyridine-8-carbonitrile]"
27,≤ 0.1,"N#CCc1cc(CNCCO)cn2nc(-c3cccc(-c4ccc5c(c4)OCCO5)c3C#N)nc12 [Example 27, 2-(8-(cyanomethyl)-6-{[(2-hydroxyethyl)amino]methyl}[1,2,4]triazolo[1,5-a]pyridin-2-yl)-6-(2,3-dihydro-1,4-benzodioxin-6-yl)benzonitrile]"

# — patent US11407749B2, “Heterocyclic compounds as immunomodulators” (Incyte Corporation, priority 2015, dated 2022)
